Tests used:
[1] = test system: HBV cccDNA; experiment: cccDNA inhibition assay (Southern blot of Hirt DNA); assay type: cell-based, hepatitis B virus; settings: for inhibition at 1 µM / inhibition at 3 µM / inhibition at 10 µM / inhibition at 30 µM / inhibition at 0.3 µM: Hepatitis B virus, read-out: cccDNA inhibition % Reduction; for inhibition at 30 µM: Concentration 30 μM; for inhibition at 0.3 µM: Concentration 0.3 μM
Protocol: Cell cultures: HepG2.2.15 cells were maintained in DMEM/F12 medium (Mediatech, Manassas, Va.) supplemented with 10% fetal bovine serum, 100 U/ml penicillin and 100 μg/ml streptomycin, plus 400 μg/ml G418. Tetracycline inducible HBV producer cells, specifically HepDE19 and HepDES19 cells, were maintained in the same way as HepG2.2.15, but with the addition of 1 μg/ml tetracycline (Guo, H., D. Jiang, T. Zhou, A. Cuconati, T. M. Block, and J. T. Guo. 2007). To initiate HBV replication and cccDNA formation in HepDE19 and HepDES19 cells, tetracycline was withdrawn from the culture medium and the cells were cultured for the indicated time period.
Viral nucleic acid analysis: Total cellular RNA was extracted with TRIzol reagent (Invitrogen, Grand Island, N.Y.) by following manufacturer's directions. Ten microgram of total cellular RNA was resolved in 1.5% agarose gel containing 2.2 M formaldehyde and transferred onto Hybond-XL membrane (GE Healthcare, Piscataway, N.J.) in 20×SSC buffer. Intracellular hepadnaviral core DNA and cccDNA (Hirt DNA) were extracted as described previously (Guo, H., D. Jiang, T. Zhou, A. Cuconati, T. M. Block, and J. T. Guo. 2007. Guo, H., D. Jiang, T. Zhou, A. Cuconati, T. M. Block, and J. T. Guo. 2007. Guo, H., R. Mao, T. M. Block, and J. T. Guo. 2010. Guo, H., W. S. Mason, C. E. Aldrich, J. R. Saputelli, D. S. Miller, A. R. Jilbert, and J. E. Newbold. 2005). Half of the DNA samples recovered from one well of a 6-well-plate were resolved by electrophoresis into a 1.2% agarose gel and blotted onto Hybond-XL membrane. Membranes were probed with either an α-^32P-UTP (800 Ci/mmol, Perkin Elmer) labeled hepadnaviral minus (detecting DNA) or plus strand (detecting RNA) specific full-length riboprobe and exposed to a phosphorimager screen (Fuji Film, Tokyo, Japan). Hybridization signals were visualized by Typhoon FLA-7000 (GE Healthcare) and quantified with ImageQuantTL software (GE Healthcare). […]
Identification of compounds that inhibits cccDNA accumulation in HepDES19 cells: Compounds were tested on HepDES19 cells, which have a higher level of cccDNA production than HepDE19 cells (Guo, H., D. Jiang, T. Zhou, A. Cuconati, T. M. Block, and J. T. Guo. 2007). Briefly, after withdrawal of tetracycline, HepDES19 cells were left untreated, or were treated with compound at serial concentrations; tetracycline-free media was changed every other day with fresh compound supplementation. The concentration of DMSO in all experimental groups was normalized at 0.1%. The cells were harvested at day 12, viral RNA (top panel), core DNA (middle panel), and Hirt DNA (DP-rcDNA and cccDNA) (bottom panels) were extracted and analyzed by Northern blot and Southern blot, respectively. Shorter exposure of the Hirt DNA blot was used for the quantitative determination of DP-rcDNA signals. […] The reduction between DP-rcDNA and cccDNA was proportional compared with untreated control. […] Liu, C. P. Hu, and C. Chang. 2005. Guo, H., T. Zhou, D. Jiang, A. Cuconati, G. H. Xiao, T. M. Block, and J. T. Guo. 2007. Zhou, T., H. Guo, J. T. Guo, A. Cuconati, A. Mehta, and T. M. Block. 2006).

[2] = cytotoxicity assay (MTT, CC50); assay type: cell-based; settings: human, HepDE19 cells
Protocol: (§1) Cell plates were then incubated with compound dilutions and controls as described above, and addition of 3-[4,5-dimethylthiazol-2-yl]-2,5-diphenyltetrazolium bromide (MTT, Sigma-Aldrich) was added to a final concentration of 0.5 mg/ml (Mosmann, T. 1983). Plates were again incubated at 37° C. for 4 hrs, after which 10% SDS/0.01N HCl was added to each well in a volume equal to the medium (100 μl), followed by overnight incubation. Absorbance was read in the Rainbow spectrophotometer (Tecan US Inc., Durham, N.C.) at 570 nm (reference wavelength of 630 nm), and analyzed with XLfit 4.0 as described above.

[3] = test system: HepDE19 cells; experiment: cytotoxicity assay (MTT, CC50); assay type: cell-based
Protocol: as §1

Row | Structure (SMILES) | inhibition at 3 µM ([1]; Concentration 3 μM) [%] | inhibition at 10 µM ([1]; Concentration 10 μM) [%] | CC50 [2] [µM] | inhibition at 30 µM [1] [%] | other results
1 | O=C(CN(c1cc(C(F)(F)F)ccc1Br)S(=O)(=O)c1ccccc1)NCc1ccncc1 [CCC-1002-2] | 30 | 90 | > 50 | – | inhibition at 1 µM ([1]; Concentration 1 μM): 30%
2 | O=C(CN(c1cc(C(F)(F)F)ccc1F)S(=O)(=O)c1ccccc1)NCc1ccncc1 [CCC-1022-3] | 50 | 75 | > 50 | – | inhibition at 1 µM ([1]; Concentration 1 μM): 20%
3 | O=C(CN(c1cc(C(F)(F)F)ccc1Cl)S(=O)(=O)c1ccc(F)cc1)NCc1ccncc1 [CCC-Lu25-20] | 20 | 60 | > 50 | 70 | –
4 | O=C(CN(c1cc(C(F)(F)F)ccc1Cl)S(=O)(=O)c1ccccc1)NCc1ccncc1 [CCC-Lu25-22] | – | 70 | > 50 | 70 | cccDNA inhibition % Reduction ([1]; Concentration 3 μM, 3 µM): 40%
5 | O=C(CN(c1cc(C(F)(F)F)ccc1Cl)S(=O)(=O)c1ccc(Cl)cc1)NCc1ccncc1 [CCC-Lu25-32] | 95 | 95 | > 50 | 95 | –
6 | Cc1ccc(S(=O)(=O)N(CC(=O)NCc2ccncc2)c2cc(C(F)(F)F)ccc2Cl)cc1 [CCC-Lu25-38] | 95 | 95 | > 50 | 95 | –
7 | COc1ccc(S(=O)(=O)N(CC(=O)NCc2ccncc2)c2cc(C(F)(F)F)ccc2Cl)cc1 [CCC-Lu25-39] | 95 | 95 | 49.2 | 95 | –
8 | O=C(CN(c1cc(Cl)ccc1F)S(=O)(=O)c1ccccc1)NCc1ccncc1 [CCC-Lu25-41] | 10 | 30 | > 50 | 40 | –
9 | O=C(CN(c1cc(C(F)(F)F)ccc1Cl)S(=O)(=O)c1ccc(C(F)(F)F)cc1)NCc1ccncc1 [CCC-Lu25-42] | 90 | 95 | > 50 | – | inhibition at 1 µM ([1]; Concentration 1 μM): 20%
10 | O=C(CN(c1cc(C(F)(F)F)ccc1Cl)S(=O)(=O)c1ccc(C(F)(F)F)cc1Cl)NCc1ccncc1 [CCC-Lu25-50] | 95 | – | 30.2 | – | –
11 | O=C(CN(c1cc(C(F)(F)F)ccc1Cl)S(=O)(=O)c1ccccc1)NCc1cccnc1 [CCC-Lu25-51] | 80 | – | > 50 | – | –
12 | O=C(CN(c1cc(C(F)(F)F)ccc1Cl)S(=O)(=O)c1ccccc1)NCc1cncnc1 [CCC-Lu25-52] | 80 | – | > 50 | – | –
13 | O=C(CN(c1cc(C(F)(F)F)ccc1Cl)S(=O)(=O)c1ccccc1)NCc1ccncn1 [CCC-Lu25-53] | 70 | – | > 50 | – | –
14 | O=C(CN(c1cc(C(F)(F)F)ccc1Cl)S(=O)(=O)c1ccccc1)N1CCc2cnccc2C1 [CCC-Lu25-54] | 50 | – | > 50 | – | –
15 | CC(C)(C)OC(=O)N1CCC(CNC(=O)CN(c2cc(C(F)(F)F)ccc2Cl)S(=O)(=O)c2ccccc2)CC1 [CCC-Lu25-55] | 95 | – | 19.1 | – | –
16 | CC(C)(C)CC(=O)NCCNC(=O)CN(c1cc(C(F)(F)F)ccc1F)S(=O)(=O)c1ccccc1 [CCC-Lu25-56] | 70 | – | 28.4 | – | –
17 | CN1CCC(CNC(=O)CN(c2cc(C(F)(F)F)ccc2Cl)S(=O)(=O)c2ccccc2)CC1 [CCC-Lu25-61-1] | 30 | – | > 50 | – | –
18 | C[N+]1(C)CCC(CNC(=O)CN(c2cc(C(F)(F)F)ccc2Cl)S(=O)(=O)c2ccccc2)CC1 [CCC-Lu25-61-2] | 30 | – | > 50 | – | –
19 | O=C(NCc1ccncc1)c1cc2ccccc2n1S(=O)(=O)c1ccccc1 [IHVR 13022-1] | 60 | 65 | > 50 | – | inhibition at 1 µM ([1]; Concentration 1 μM): 50%
20 | Cc1cc2cc(NC(=O)c3ccc(S(=O)(=O)N(C)Cc4ccccc4)cc3)ccc2[nH]1 [IHVR-13003-1] | 3 | 5 | > 50 | 10 | –
21 | CN(Cc1ccccc1)S(=O)(=O)c1ccc(C(=O)Nc2ccc3ncsc3c2)cc1 [IHVR-13004] | 50 | – | 34.1 | – | inhibition at 0.3 µM [1]: 0%; inhibition at 1 µM ([1]; Concentration 1 μM): 0%
22 | Cc1nc2ccc(NC(=O)c3ccc(S(=O)(=O)N(C)Cc4ccccc4)cc3)cc2s1 [IHVR-13006] | 50 | – | 5.9 | – | inhibition at 0.3 µM [1]: 2%; inhibition at 1 µM ([1]; Concentration 1 μM): 50%
23 | CN(Cc1ccccc1)S(=O)(=O)c1ccc(C(=O)NCc2ccncc2)cc1 [IHVR-13009] | 15 | 15 | > 50 | 30 | –
24 | Cc1nc2cc(NC(=O)CN(c3cc(C(F)(F)F)ccc3Cl)S(=O)(=O)c3ccccc3)ccc2s1 [IHVR-13102] | 30 | 80 | > 50 | 30 | –
25 | O=C(CN(c1cc(C(F)(F)F)ccc1Cl)S(=O)(=O)c1ccccc1)NCc1ccncc1 [IHVR-13106] | – | – | – | – | cccDNA inhibition % Reduction ([1]; Concentration 1 μM, 1 µM): 0%; cccDNA inhibition % Reduction ([1]; Concentration 3 μM, 3 µM): 70%; cccDNA inhibition % Reduction ([1]; Concentration 10 μM, 10 µM): 80%; CC50 [3]: > 50 µM
26 | O=C(NCc1ccncc1)C1CCCN1S(=O)(=O)c1ccccc1 (stereo not drawn) [IHVR-13108] | 70 | 50 | > 50 | – | inhibition at 1 µM ([1]; Concentration 1 μM): 10%
27 | CN1CCN(c2ccc(CNC(=O)CN(c3cc(C(F)(F)F)ccc3Cl)S(=O)(=O)c3ccccc3)cc2)CC1 [IHVR-29022] | 30 | – | 49.5 | – | –
28 | CN1CCN(c2cccc(CNC(=O)CN(c3cc(C(F)(F)F)ccc3Cl)S(=O)(=O)c3ccccc3)c2)CC1 [IHVR-29023] | 30 | – | 38.7 | – | –
